Tested on: IL-6 in THP-1 monocytes
Experiment: Anti-inflammation efficacy in THP-1 in vitro assay: IL-6 in supernatant by ELISA after LPS stimulation
Format: cell-based
Conditions: LPS 1 μg/mL, 24 hours, PMA-differentiated THP-1
Description: The following procedure was used to test the anti-inflammation efficacy of the various actives alone or in combination. • (i) 5×10^5 THP-1 monocytes were placed into 24-well plates, with 100 nM PMA in the culture media to differentiate the cell. • (ii) After 72 hours differentiation, treatments as follows were supplemented into fresh media and applied to the cells: • Example 1: Vehicle control with LPS (1 μg/mL) stimulation • Example 2,3: DHA at 100 or 20 μM alone with LPS (1 μg/mL) stimulation. • Example 4,5: Niacinamide at 10000 or 5000 μM alone with LPS (1 μg/mL) stimulation. • Example 6,7: Combinations of 100 μM DHA and either 10000 or 5000 μM of niacinamide. • Example 8: Combination of 20 μM DHA and 10000 μM of niacinamide. • (iii) After 24 hours incubation, the supernatants were collected. • (iv) Then IL-6 concentration was quantified in the supernatant by BD Elisa kit. • (v) IL-6 inhibition rate was calculated in comparison with vehicle control with LPS stimulation as a reference for each treatment.
The lower the percentage, the higher the anti-inflammatory potential. The CI value (combination index) of the various combinations is also less than 1 indicating synergism.
The data below is expressed in % IL-6 inhibition rate in Table-2 below. • (i) 5×10^5 THP-1 monocytes were placed into 24-well plates, with 100 nM PMA in the culture media to differentiate the cell. • (ii) After 72 hours differentiation, treatments as follows were supplemented into fresh media and applied to the cells: • Example 9: Vehicle control with LPS (1 μg/mL) stimulation • Example 10,11,12: DHA at 100, 50 or 25 μM alone with LPS (1 μg/mL) stimulation. • Example 13,14,15: Niacinamide at 5000, 2500 or 1250 μM alone with LPS (1 μg/mL) stimulation. • Example 16: Combinations of 100 μM DHA and 5000 μM of niacinamide. • Example 17: Combination of 50 μM DHA and 2500 μM of niacinamide. • Example 18: Combination of 25 μM DHA and 1250 μM of niacinamide. • (iii) After 24 hours incubation, the supernatants were collected. • (iv) Then IL-6 concentration was tested in the supernatant by BD Elisa Kit. • (v) IL-6 inhibition rate was calculated in comparison with vehicle control with LPS stimulation as reference, for each treatment.
Experiments were carried out at various concentrations of DHA and niacinamide at mole ratios outside the invention i.e., at 1:12.5. The data below is expressed in % IL-6 inhibition rate in Table-3 below: • (i) 5×10^5 THP-1 monocytes were placed into 24-well plates, with 100nM PMA in the culture media to differentiate the cell. • (ii) After 72 hours differentiation, treatments as follows were supplemented into fresh media and applied to the cells: • Example 20: Vehicle control with LPS (1 μg/mL) stimulation • Example 21,22,23: DHA at 100, 50 or 25 μM alone with LPS (1 μg/mL) stimulation. • Example 24,25,26: Niacinamide at […] alone with LPS (1 μg/mL) stimulation. • Example 27: Combinations of 100 μM DHA and 1250 μM of niacinamide. • Example 28: Combination of 50 μM DHA and 625 μM of niacinamide. • Example 29: Combination of 25 μM DHA and […] of niacinamide. • (iii) After 24 hours incubation the supernatants were collected. • (iv) Then IL-6 concentration was tested in the supernatant by BD Elisa Kit. • (v) IL-6 inhibition rate was calculated in comparison with vehicle control with LPS stimulation as reference, for each treatment.

Row | SMILES | % of LPS (concentration of IL-6 as a % of that obtained for LPS) (20 μM of DHA alone) [%] | % of LPS (concentration of IL-6 as a % of that obtained for LPS) (25 μM of DHA alone) [%] | % of LPS (concentration of IL-6 as a % of that obtained for LPS) (50 μM of DHA alone) [%] | % of LPS (concentration of IL-6 as a % of that obtained for LPS) (100 μM of DHA alone) [%] | % of LPS (concentration of IL-6 as a % of that obtained for LPS) (100 μM of DHA alone, listed as 10) [%] | % of LPS (concentration of IL-6 as a % of that obtained for LPS) (100 μM of DHA alone, listed as 21) [%] | % of LPS (concentration of IL-6 as a % of that obtained for LPS) (317.5 μM of niacinamide alone) [%] | % of LPS (concentration of IL-6 as a % of that obtained for LPS) (625 μM of niacinamide alone) [%] | % of LPS (concentration of IL-6 as a % of that obtained for LPS) (1250 μM of niacinamide alone, listed as 15) [%] | % of LPS (concentration of IL-6 as a % of that obtained for LPS) (1250 μM of niacinamide alone, listed as 24) [%] | % of LPS (concentration of IL-6 as a % of that obtained for LPS) (2500 μM of niacinamide alone) [%] | % of LPS (concentration of IL-6 as a % of that obtained for LPS) (5000 μM of niacinamide alone, listed as 5) [%] | % of LPS (concentration of IL-6 as a % of that obtained for LPS) (5000 μM of niacinamide alone, listed as 13) [%] | % of LPS (concentration of IL-6 as a % of that obtained for LPS) (10000 μM of niacinamide alone) [%]
1 | CC/C=C\C/C=C\C/C=C\C/C=C\C/C=C\C/C=C\CCC(=O)O [Example 2, docosahexaenoic acid] | 58.5 | 65.5 | 38.7 | 14.7 | 8.3 | 8.3 |  |  |  |  |  |  |  | 
2 | NC(=O)c1cccnc1 [Example 4, niacinamide] |  |  |  |  |  |  | 84.2 | 77.6 | 64.5 | 35.4 | 50.8 | 33.4 | 26.5 | 5.7

— US20200206173A1, “A PERSONAL CARE COMPOSITION” (Conopco, Inc., d/b/a UNILEVER, priority 2017, published 2020)
